Like-named read-outs stand apart in the source and are kept apart here.
Key:
Test in all cases: in vitro antibacterial activity, agar dilution method (MIC)
Format in all cases: cell-based
Acinetobacter Sp = conditions: strain CMX 669; BHI agar, 20-24 hours
Procedure: (§1) The test medium was Brain Heart Infusion (BHI) agar. The antibacterial agent was dissolved at a concentration of 2,000 ug/mL. Test plates were then prepared, usually 12 two-fold dilutions. After adding the sample to the plates, 10 mL of cooled BHI agar medium was added to each plate. The organisms were grown overnight in BHI broth (Difco) in a 35°-37° C. incubator.
(§2) On the day of testing, the bacterial suspensions were diluted 1:100 in sterile distilled water, except for a few slow-growing organisms (usually Micrococcus and Streptococcus) which were diluted 1:10. The plate was then inoculated with approximately 10^4 organisms. This was incubated in a 35°-37° C. incubator for 20-24 hours. Thereafter, the plates were read to determine the minimum inhibitory concentration (MIC) defined as the lowest concentration of drug yielding no growth on the plate, a slight haze, or sparsely isolated colonies on the inoculum spot as compared to the growth control.

Enterobacter Aerogenes = conditions: strain ATCC 13048; BHI agar, 20-24 hours
Procedure: as §1, §2

Enterococcus Faecium = conditions: strain ATCC 8043; BHI agar, 20-24 hours
Procedure: as §1, §2

Haemophilus Influenzae = conditions: BHI agar, 20-24 hours
Procedure: as §1, §2

Klebsiella Pneumoniae = conditions: strain ATCC 8045; BHI agar, 20-24 hours
Procedure: as §1, §2

Micrococcus Luteus = tested on: Micrococcus Luteus
Procedure: as §1, §2

Providencia Stuartii = conditions: strain CMX 640, BHI agar, 20-24 hours
Procedure: as §1, §2

Pseudomonas Aeruginosa = conditions: BHI agar, 20-24 hours
Procedure: as §1, §2

Staphylococcus Aureus = conditions: BHI agar, 20-24 hours
Procedure: as §1, §2

[1] = tested on: Staphylococcus Epidermidis; conditions: strain 3519; BHI agar, 20-24 hours
Procedure: as §1, §2

Streptococcus Agalactiae = conditions: strain CMX 508; BHI agar, 20-24 hours
Procedure: as §1, §2

Streptococcus Bovis = conditions: Streptococcus equinus, strain A5169, BHI agar, 20-24 hours
Procedure: as §1, §2

Streptococcus Pyogenes = conditions: BHI agar, 20-24 hours
Procedure: as §1, §2

Escherichia Coli = conditions: BHI agar, 20-24 hours
Procedure: (§3) Compounds 1 to 8 were evaluated for antibacterial activity by the agar dilution method to determine the degree of in vitro susceptibility of aerobic microorganisms to antimicrobial agents. The test medium was Brain Heart Infusion (BHI) agar. The antibacterial agent was dissolved at a concentration of 2,000 ug/mL. Test plates were then prepared, usually 12 two-fold dilutions. After adding the sample to the plates, 10 mL of cooled BHI agar medium was added to each plate. The organisms were grown overnight in BHI broth (Difco) in a 35°-37° C. incubator.
as §2

Pseudomonas Cepacia = conditions: strain 296I, BHI agar, 20-24 hours
Procedure: as §3, §2

[2] = strain ATCC 4698, BHI agar, 20-24 hours

Measured: MIC

CCC1OC(=O)CC(O)C(C)C(OC2OC(C)CC(N(C)C)C2O)C(CC=O)CC(C)C(N(C)C)CCC2(C)OC2C1C (stereo not shown) [Example 2, [9R]-9-Deoxo-10,11-dihydro-9-N,N-dimethylamino-rosaramicin]
3.1 µg/mL: Micrococcus Luteus; Micrococcus luteus, ATCC9341, strain ATCC 9341, BHI agar, 20-24 hours, read-out: MIC | Pseudomonas Aeruginosa; strain K799/61 | Streptococcus Agalactiae | Streptococcus Pyogenes; Streptococcus pyogenes, strain EES61, read-out: MIC
0.25 µg/mL: Haemophilus Influenzae; strain 1177
> 100 µg/mL: Providencia Stuartii; Providencia stuartii, read-out: MIC | Pseudomonas Aeruginosa; Pseudomonas aeruginosa, strain A5007, read-out: MIC | Pseudomonas Aeruginosa; Pseudomonas aeruginosa, strain BMH10, read-out: MIC | Pseudomonas Aeruginosa; Pseudomonas aeruginosa, strain K799/WT, read-out: MIC | Streptococcus Pyogenes; Streptococcus pyogenes, strain 930 CONST, read-out: MIC | Pseudomonas Cepacia; Burkholderia cepacia, read-out: MIC
2 µg/mL: Haemophilus Influenzae; Haemophilus influenzae, ATCC9795, strain ATCC 9795, read-out: MIC | Haemophilus Influenzae; Haemophilus influenzae, strain 566A, read-out: MIC | Haemophilus Influenzae; Haemophilus influenzae, strain 588A, read-out: MIC | Haemophilus Influenzae; Haemophilus influenzae, strain 632A, read-out: MIC | Haemophilus Influenzae; Haemophilus influenzae, strain 747C, read-out: MIC | Haemophilus Influenzae; Haemophilus influenzae, strain SOL AMP R, read-out: MIC | Haemophilus Influenzae; strain 503B | Haemophilus Influenzae; strain 504 | Haemophilus Influenzae; strain 667A | Haemophilus Influenzae; strain ATCC 10211
25 µg/mL: Acinetobacter Sp | Klebsiella Pneumoniae | Staphylococcus Aureus; strain 45 | Staphylococcus Aureus; strain 45 RAR2 | Staphylococcus Aureus; strain A5177 | Staphylococcus Aureus; strain ATCC 6538P | Staphylococcus Aureus; strain CMX 553 | Staphylococcus Aureus; strain NCTC 10649 | [1]
12.5 µg/mL: Enterococcus Faecium
4 µg/mL: Haemophilus Influenzae; Haemophilus influenzae, ATCC19418, strain ATCC 19418, read-out: MIC | Haemophilus Influenzae; Haemophilus influenzae, ATCC43095, strain ATCC 43095, read-out: MIC
1.56 µg/mL: Streptococcus Bovis; read-out: MIC
0.2 µg/mL: Escherichia Coli; Escherichia coli, strain SS, read-out: MIC
50 µg/mL: Staphylococcus Aureus; strain 642A | Escherichia Coli; strain DC-2 | Escherichia Coli; strain KNK 437
6.2 µg/mL: Micrococcus Luteus; [2] | Streptococcus Pyogenes; strain 2548 INDUC
1 µg/mL: Haemophilus Influenzae; strain 519A | Haemophilus Influenzae; strain 751 | Haemophilus Influenzae; strain 1435
100 µg/mL: Enterobacter Aerogenes | Escherichia Coli; strain JUHL
0.5 µg/mL: Haemophilus Influenzae; Haemophilus influenzae, strain SPK AMP R, read-out: MIC

CCC1OC(=O)CC(O)C(C)C(OC2OC(C)CC(N(C)C)C2O)C(CC=O)CC(C)C(N(C)C)CCC2(C)OC2C1C (stereo not shown) [Example 3, [9S]-9-Deoxo-10,11-dihydro-9-N,N-dimethylamino-rosaramicin]
0.25 µg/mL: Haemophilus Influenzae; Haemophilus influenzae, strain 519A, read-out: MIC | Haemophilus Influenzae; strain SPK AMP R
> 100 µg/mL: Providencia Stuartii | Pseudomonas Aeruginosa; strain A5007 | Streptococcus Pyogenes; strain 930 CONST | Pseudomonas Cepacia
1.56 µg/mL: Staphylococcus Aureus; strain 45 RAR2 | Staphylococcus Aureus; strain 642A | Staphylococcus Aureus; strain ATCC 6538P | Staphylococcus Aureus; strain CMX 553 | [1]
6.2 µg/mL: Klebsiella Pneumoniae | Escherichia Coli; strain DC-2
0.05 µg/mL: Streptococcus Bovis
0.5 µg/mL: Haemophilus Influenzae; Haemophilus influenzae, strain 1435, read-out: MIC | Haemophilus Influenzae; Haemophilus influenzae, strain DILL AMP R, read-out: MIC | Haemophilus Influenzae; strain 503B | Haemophilus Influenzae; strain 504 | Haemophilus Influenzae; strain 667A | Haemophilus Influenzae; strain ATCC 10211
1 µg/mL: Haemophilus Influenzae; strain 566A | Haemophilus Influenzae; strain 588A | Haemophilus Influenzae; strain 632A | Haemophilus Influenzae; strain 747C | Haemophilus Influenzae; strain ATCC 9795 | Haemophilus Influenzae; strain ATCC 19418 | Haemophilus Influenzae; strain ATCC 43095 | Haemophilus Influenzae; strain SOL AMP R
0.2 µg/mL: Micrococcus Luteus; Micrococcus luteus, ATCC9341 | Streptococcus Agalactiae
0.1 µg/mL: Streptococcus Pyogenes; strain EES61 | Escherichia Coli; strain SS
0.12 µg/mL: Haemophilus Influenzae; strain 1177
100 µg/mL: Pseudomonas Aeruginosa; strain BMH10 | Pseudomonas Aeruginosa; strain K799/WT
0.78 µg/mL: Enterococcus Faecium | Pseudomonas Aeruginosa; strain K799/61 | Staphylococcus Aureus; strain 45 | Staphylococcus Aureus; strain A5177 | Staphylococcus Aureus; strain NCTC 10649 | Streptococcus Pyogenes; strain 2548 INDUC
3.1 µg/mL: Acinetobacter Sp
12.5 µg/mL: Enterobacter Aerogenes
0.39 µg/mL: Micrococcus Luteus; [2]
4 µg/mL: Haemophilus Influenzae; Haemophilus influenzae, strain 751, read-out: MIC

— US5140014A (Abbott Laboratories, priority 1989, dated 1992)
